Measured values: patent publication US5688787A, “Substituted β-lactam compounds useful as hypochlesterolemic agents and processes for the preparation thereof” (priority 1996, dated 1997)
Where two headings read alike, the source gives them in different places.

Legend:
[1] = target: T1, ACAT (Rattus norvegicus, UniProt Q7TQM4); test: ACAT Assay (in vitro); assay type: biochemical; settings: for inhibition at 10 µM: Conc. 10 µM, negative = apparent stimulation, read-out: ACAT (in vitro) % Inhib.
T1 construct: Rat liver microsomes are used as the source of ACAT; from tissue; host or cells: rat liver microsomes
T1 sequence (Q7TQM4 1-524): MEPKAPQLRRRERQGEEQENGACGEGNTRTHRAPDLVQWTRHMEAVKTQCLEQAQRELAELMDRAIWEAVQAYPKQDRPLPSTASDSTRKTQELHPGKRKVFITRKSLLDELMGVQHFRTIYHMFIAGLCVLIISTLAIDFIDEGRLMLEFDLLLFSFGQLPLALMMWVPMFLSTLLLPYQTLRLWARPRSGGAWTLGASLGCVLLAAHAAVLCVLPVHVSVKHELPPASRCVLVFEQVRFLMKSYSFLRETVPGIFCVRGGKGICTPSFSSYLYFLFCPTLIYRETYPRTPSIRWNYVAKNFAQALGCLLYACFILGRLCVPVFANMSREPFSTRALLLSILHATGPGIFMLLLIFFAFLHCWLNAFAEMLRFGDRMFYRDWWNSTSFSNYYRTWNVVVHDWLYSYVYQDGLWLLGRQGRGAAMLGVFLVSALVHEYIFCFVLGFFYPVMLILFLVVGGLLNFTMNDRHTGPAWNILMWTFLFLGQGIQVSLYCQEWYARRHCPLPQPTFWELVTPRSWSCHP
Procedure: This assay measures the activity of ACAT by measuring the ACAT-mediated transfer of tritiated oleic acid from acyl-CoA to cholesterol to give labelled cholesteryl oleate. Rat liver microsomes are used as the source of ACAT. Assays are performed in round bottom microtiterplates using a total incubation volume of 50 μL. […] The microtiterplate is then floated on the surface of a 37° C. water bath for fifteen minutes. Incubations are started by the addition of 3 μL ^3 H-acyl CoA (1 μCi/well, final concentration of 10 μM acyl CoA). The plate is then returned to the water bath for 15 minutes. The incubations are then terminated by application of 15 μL from each incubation to individual lanes on a thin layer plate (Silica Gel GF 20×20 cm). Standards are applied to several lanes so that the cholesteryl ester band can be identified. After drying, the plates am eluted with 90:10:1 petroleum ether:diethyl ether:acetic acid. The standards am visualized via iodine vapor, and the regions corresponding to cholesteryl ester are scraped into 7 mL scintillation vials. 4 mL of scintillant are added to each vial, and the radioactivity quantified. Background count is determined by the boiled controls. Full activity is determined by activity in the presence of vehicle. The percent inhibition is calculated by subtracting the background from both control and test samples, and the test value is calculated as a percentage of the control.
For the in vitro ACAT data, negative percent inhibition denotes apparent stimulation,while positive numbers denote inhibition.

[2] = system: Hyperlipidemic Hamster; test: In Vivo Assay of Hypolipidemic Agents Using the Hyperlipidemic Hamster; settings: 7 days, percent change versus control, negative = lowering; for change in vivo at 50 mg/kg / change in vivo at 5 mg/kg / change in vivo at 10 mg/kg / change in vivo at 1 mg/kg / change in vivo at 3 mg/kg: Mesocricetus auratus, po, 168 h; for change in vivo at 50 mg/kg / % Reduction (in vivo) Cholest. Esters / % Reduction (in vivo) Serum Cholest.: 50 mg/kg once daily oral; for change in vivo at 5 mg/kg: 5 mg/kg once daily oral; for change in vivo at 10 mg/kg: 10 mg/kg once daily oral; for change in vivo at 1 mg/kg: 1 mg/kg once daily oral; for change in vivo at 3 mg/kg: 3 mg/kg once daily oral
Method in brief: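 Hamsters, six per group, were fed chow with 0.5% cholesterol for seven days and given compound once daily by oral gavage in corn oil; controls received corn oil alone. Plasma (EDTA) and liver lipids were measured at sacrifice. Values are percent change versus control, so negative means lowering.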

[3] = read-out: % Reduction (in vivo) Cholest. Esters
[4] = read-out: % Reduction (in vivo) Serum Cholest.
[5] = rat liver microsomes, read-out: ACAT (in vitro) IC50

Row | Structure (SMILES) | inhibition at 10 µM [1] | change in vivo at 50 mg/kg [2, 3] | change in vivo at 50 mg/kg [2, 4] | also measured
1 | CC[C@]1(c2ccccc2)C(=O)N(c2ccc(OC)cc2)[C@H]1c1ccccc1 (relative stereo) [Example 1AA] | -36% | – | – | –
2 | CC[C@H]1C(=O)N(c2ccc(OC)cc2)[C@H]1c1ccccc1 (relative stereo) [Example 1AB] | 17% | – | – | –
3 | CC[C@H]1C(=O)N(c2ccc(OC)cc2)[C@@H]1c1ccccc1 (relative stereo) [Example 1AD] | -5% | – | – | –
4 | CC[C@H]1C(=O)N(c2c(OC)cc(OC)cc2OC)[C@H]1c1ccccc1 (relative stereo) [Example 1AE] | -7% | – | – | –
5 | CC[C@H]1C(=O)N(c2ccc(OC)cc2)[C@H]1C=Cc1ccccc1 (relative stereo) [Example 1AF] | 0% | – | – | –
6 | CC[C@@H]1C(=O)N(c2ccc(OC)cc2)[C@H]1C=Cc1ccccc1 (relative stereo) [Example 1AG] | -3% | -29% | -16% | –
7 | COc1ccc(N2C(=O)[C@@H](C)[C@H]2c2ccccc2)cc1 (relative stereo) [Example 1AH] | 4% | – | – | –
8 | COc1ccc(N2C(=O)[C@@H](C)[C@@H]2c2ccccc2)cc1 (relative stereo) [Example 1AI] | 27% | – | – | –
9 | CC[C@@H]1C(=O)N(c2ccc(OC)cc2)[C@H]1c1ccc([N+](=O)[O-])cc1 (relative stereo) [Example 1AJ] | -17% | 0% | 0% | –
10 | CC[C@H]1C(=O)N(c2ccc(OC)cc2)[C@H]1c1ccc([N+](=O)[O-])cc1 (relative stereo) [Example 1AK] | -33% | – | – | –
11 | CC[C@@H]1C(=O)N(c2ccc(OC)cc2)[C@@H]1c1ccc(OC)cc1 (relative stereo) [Example 1AL] | -43% | 0% | 0% | –
12 | COc1ccc(N2C(=O)[C@H](CCCc3ccccc3)[C@H]2c2ccncc2)cc1 (relative stereo) [Example 1AR] | -41% | -25% | -22% | –
13 | COc1ccc(N2C(=O)[C@H](CCCc3ccccc3)[C@H]2c2ccc(CO[Si](C)(C)C(C)(C)C)cc2)cc1 (relative stereo) [Example 1AS] | 83% | -19% | 0% | IC50 [1]: 1 µM
14 | COc1ccc(N2C(=O)[C@H](CCCc3ccccc3)[C@@H]2c2ccc(CO[Si](C)(C)C(C)(C)C)cc2)cc1 (relative stereo) [Example 1AT] | 70% | -28% | 0% | IC50 [1]: 5 µM
15 | COc1ccc(N2C(=O)[C@H](CCCc3ccccc3)[C@@H]2c2ccc(SC)cc2)cc1 (relative stereo) [Example 1AU] | 44% | -21% | 0% | –
16 | COc1ccc(N2C(=O)[C@@H](CCc3ccccc3)[C@@H]2c2ccccc2)cc1 (relative stereo) [Example 1E] | 3% | – | – | –
17 | CC[C@@]1(CCCc2ccccc2)C(=O)N(c2c(OC)cc(OC)cc2OC)[C@H]1C=Cc1ccccc1 (relative stereo) [Example 1I] | 81% | – | – | IC50 [1, 5]: 4.5 µM
18 | CC[C@]1(CCCc2ccccc2)C(=O)N(c2c(OC)cc(OC)cc2OC)[C@H]1C=Cc1ccccc1 (relative stereo) [Example 1J] | 86% | – | – | IC50 [1, 5]: 3 µM
19 | COc1ccc(N2C(=O)[C@H](c3ccccc3)[C@H]2c2ccccc2)cc1 (relative stereo) [Example 1V] | 64% | – | – | –

Row | Structure (SMILES) | inhibition at 10 µM [1] | change in vivo at 50 mg/kg [2, 3] | change in vivo at 50 mg/kg [2, 4] | also measured
20 | COc1ccc(N2C(=O)[C@H](C(C)C)[C@@H]2c2ccccc2)cc1 (relative stereo) [Example 1W] | 9% | – | – | –
21 | COc1ccc(N2C(=O)[C@](Cc3ccccc3)(c3ccccc3)[C@@H]2c2ccccc2)cc1 (relative stereo) [Example 1Y] | 50% | – | – | –
22 | CCCCCCCCCC[C@@]1(CCCc2ccccc2)C(=O)N(c2ccc(OC)cc2)[C@@H]1c1ccccc1 (relative stereo) [Example 3C] | -18% | – | – | –
23 | COc1ccc(N2C(=O)[C@H](c3ccccc3)[C@@H]2c2ccccc2)cc1 (relative stereo) [Example 4] | 16% | – | – | –
24 | COc1ccc(N2C(=O)[C@@H](C(C)C)[C@@H]2c2ccccc2)cc1 (relative stereo) [Example 5A] | -70% | – | – | –
25 | CC[C@@H]1C(=O)N(c2ccc(OC)cc2)[C@@H]1c1ccc(N)cc1 (relative stereo) [Example 8] | -12% | – | – | –
26 | CCOC(=O)COc1ccc([C@H]2[C@@H](CCCc3ccccc3)C(=O)N2c2ccc(OC)cc2)cc1 (relative stereo) [Example 35A] | – | -84% | -34% | –
27 | COc1ccc([C@@H]2[C@@H]([C@H]3C[C@H]3Cc3ccccc3)C(=O)N2c2ccc(OC)cc2)cc1 (relative stereo) [Example 36] | – | -94% | -53% | –
28 | CCCCCCCCCC[C@@]1(CC)C(=O)N(c2ccc(OC)cc2)[C@@H]1c1ccccc1 (stereo in doubt) [Example 3T] | -9% | – | – | –
29 | COc1ccc(N2C(=O)C(CCCc3ccccc3)C2c2ccc(C3OCCO3)cc2)cc1 (centres unmarked) [Example 1AX] | – | – | – | % Reduction (in vivo) Cholest. Esters [2]: -52%; % Reduction (in vivo) Serum Cholest. [2]: -16%
30 | COc1ccc(C2C(CCCc3ccccc3)C(=O)N2c2ccc(OC)cc2)cc1 (centres unmarked) [Example 1] | – | -95% | -45% | change in vivo at 5 mg/kg [2, 3]: 0%; change in vivo at 5 mg/kg [2, 4]: 0%; change in vivo at 10 mg/kg [2, 3]: -55%; change in vivo at 10 mg/kg [2, 4]: -17%
31 | COc1ccc([C@H]2[C@@H](CCCc3ccccc3)C(=O)N2c2ccc(OC)cc2)cc1 [Example 2A] | – | 0% | 0% | –
32 | COc1ccc([C@@H]2[C@H](CCCc3ccccc3)C(=O)N2c2ccc(OC)cc2)cc1 [Example 2] | – | – | – | change in vivo at 5 mg/kg [2, 3]: -37%; change in vivo at 5 mg/kg [2, 4]: -15%; change in vivo at 10 mg/kg [2, 3]: -69%; change in vivo at 10 mg/kg [2, 4]: -28%
33 | COc1ccc(C2C(CCCc3ccccc3)C(=O)N2c2ccc(Oc3ccccc3)cc2)cc1 (centres unmarked) [Example 5K] | – | -49% | -28% | –
34 | COc1ccc([C@@H]2[C@@H](CCCc3ccccc3)C(=O)N2c2ccccc2)cc1 [Example 5L] | – | – | – | change in vivo at 1 mg/kg [2, 3]: -64%; change in vivo at 1 mg/kg [2, 4]: -54%; change in vivo at 3 mg/kg [2, 3]: -84%; change in vivo at 3 mg/kg [2, 4]: -39%; change in vivo at 10 mg/kg [2, 3]: -95%; change in vivo at 10 mg/kg [2, 4]: -50%
35 | COc1ccc([C@H]2[C@H](CCCc3ccccc3)C(=O)N2c2ccccc2)cc1 [Example 5M] | – | -50% | -20% | change in vivo at 3 mg/kg [2, 3]: 0%; change in vivo at 3 mg/kg [2, 4]: -12%; change in vivo at 10 mg/kg [2, 3]: -36%; change in vivo at 10 mg/kg [2, 4]: -8%
36 | COc1ccc([C@@H]2[C@@H](CCCc3ccccc3)C(=O)N2c2ccc(OC)cc2)cc1 [Example 9, (3R,4S)-1,4-bis-(4-methoxyphenyl)-3-(3-phenylpropyl)-2-azetidinone] | – | – | – | change in vivo at 3 mg/kg [2, 3]: -68%; change in vivo at 3 mg/kg [2, 4]: -25%; change in vivo at 5 mg/kg [2, 3]: -66%; change in vivo at 5 mg/kg [2, 4]: -21.5%; change in vivo at 10 mg/kg [2, 3]: -93%; change in vivo at 10 mg/kg [2, 4]: -43%
37 | COc1ccc(N2C(=O)C(CCCc3ccccc3)C2c2ccc(C3OCCO3)cc2)cc1 (centres unmarked) [Example 31A] | – | – | – | % Reduction (in vivo) Cholest. Esters [2]: 0%; % Reduction (in vivo) Serum Cholest. [2]: 0%
38 | COC(=O)CCC(=O)Oc1ccc(C2C(CCCc3ccccc3)C(=O)N2c2ccc(OC)cc2)cc1 (centres unmarked) [Example 34] | – | -94% | -39% | –
